# Source: US20230181464A1, “COMPOSITIONS FOR DELIVERY OF BIOACTIVE AGENTS INTO HAIR FOLLICLES” (FOLLICLE PHARMA LTD, priority 2020, published 2023)
# Read-outs that look alike come from different tables or passages of the source.
# Key:
# [1] = cited from earlier work
# C57bl mice [2] = assay: Testosterone-induced alopecia model in mice, hair cover (Example 2); assay type: in vivo; settings: oral, 100 uL once daily; testosterone-injected mice
# C57bl mice [3] = assay: Testosterone-induced alopecia in mice, hair cover over 28 d (Example 3); assay type: in vivo; settings: oral once daily
# Description: (§1) Hair on the backs of C57bl mice were shaved with electric clippers and subsequent application of ‘hair removal cream’ (Veet, Oxy Reckit Benckiser, Chartes, France). Twenty-four hours following hair removal, mice received daily subcutaneous injections of Testosterone, 1 mg/mouse, at the neck region. Twenty-four hours after the first Testosterone injection mice started receiving treatment as per Table 6 below. Topical formulations were applied onto the entire shaved back skin. The hair cover was analyzed by ImagJ software.
# [4] = tested on: DHT (dihydrotestosterone); assay: Skin DHT expression at Day 28 (Example 3); assay type: in vivo, mice
# Description: as §1
# [5] = Blood concentration of dutasteride at Day 28 (Example 3); assay type: in vivo; settings: C57bl, mice, Oral, daily dose 5-10 ug/mouse, read-out: Blood conc (ng/ml) of dutasteride
# [6] = Human, 0.5 mg PO, from the literature; cited from earlier work
# [7] = drug substance listed in Table 16
smiles,measurement,setting,value
CCOC(=O)c1ccc(C#Cc2ccc3c(c2)C(C)(C)CCS3)nc1 [Tazarotene],logP,[1]; [7],logP 5.6
O=C(OOC(=O)c1ccccc1)c1ccccc1 [Benzoyl peroxide],logP,[1]; [7],LogP 2.75
C[C@]12C=CC(=O)N[C@@H]1CC[C@@H]1[C@@H]2CC[C@]2(C)[C@@H](C(=O)Nc3cc(C(F)(F)F)ccc3C(F)(F)F)CC[C@@H]12 [dutasteride],% hair cover at 21 days,C57bl mice [2],30%
same,Group Mean Hair cover (%),C57bl mice [3]; Study Day 0,0.0%
same,Group Mean Hair cover (%),C57bl mice [3]; Study Day 7,0.0%
same,Group Mean Hair cover (%),C57bl mice [3]; Study Day 14,2.3%
same,Group Mean Hair cover (%),C57bl mice [3]; Study Day 21,5.2%
same,Group Mean Hair cover (%),C57bl mice [3]; Study Day 28,22.3%
same,DHT expression in the skin (in words),[4]; mice,did not exhibit reduced concentrations of DHT in the skin
same,Mean DHT conc. (nmol/L)/group,"[4]; skin, oral 5-10 ug/mouse x 1/d",22.91 nmol/L
same,concentration at 28 day,[5],39 ng/mL
same,Plasma Concentration of Dutasteride,[6],23.60 ng/mL
O=C(Nc1c(Cl)cncc1Cl)c1ccc(OC(F)F)c(OCC2CC2)c1 [Roflumilast],logP,[1]; [7],logP 4.47
"CC(C)(C)NC(=O)[C@H]1CC[C@H]2[C@@H]3CC[C@H]4NC(=O)C=C[C@]4(C)[C@H]3CC[C@]12C [Oral finasteride, finasteride]",% hair cover at 21 days,C57bl mice [2],20%
CC(=O)Oc1c(C)c(C)c2c(c1C)CCC(C)(CCC[C@H](C)CCC[C@H](C)CCCC(C)C)O2 (some centres unmarked) [Tocopherol acetate],logP,[1]; [7],acetate LogP 10.8
N#CC[C@H](C1CCCC1)n1cc(-c2ncnc3[nH]ccc23)cn1 [Ruxolitinib],logP,[1],"Ruxolitinib logP, 2.48"
C1=C/COCc2cc(ccc2OCCN2CCCC2)Nc2nccc(n2)-c2cccc(c2)COC/1 [Pacritinib],logP,[1]; [7],logP 4.58
